Measured values from patent US9526248B2 (Rohm and Haas Company, priority 2012, dated 2016).
Like-named read-outs stand apart in the source and are kept apart here.

Assays:
Chlorella sp. ATCC 7516 = assay: Algal efficacy test of dry paint films (modified ASTM 5589, 6-well plates); type: cell-based; details: for inhibition at 5000 ppm: 504 h; for Total conc: total biocide concentration in paint at which the % inhibition is reported, pass level ≥75% inhibition, single actives: maximum concentration tested, no pass
Protocol: (§1) These paints were then diluted with an antimicrobial free acrylic/silicone based paint and mixed to prepare targeted concentrations of antimicrobial compounds for the testing. The total biocides concentrations tested were 125, 250, 500, 1000, 2000 and 5000 ppm. After biocides addition or dilution, the paints were mixed 90 seconds with the horse power shaker (AXEL 75M3372/Agitateur 50-10MI) until uniformity was achieved. Paints containing different antimicrobial compounds at the same levels were mixed together in order to obtain the desired ratio of antimicrobial compounds. After one day, the paints were applied to Schleicher & Schuell filter paper at 280 μm wet film thickness and dried for 3 days at room temperature avoiding direct exposure to sunlight. Square discs (1.6 cm×1.6 cm) were cut out from each panel and were used as the substrate for algal efficacy tests. This sample size allowed for an agar border when the sample disc was placed into the well of the test plate.
(§2) Algal efficacy was tested according to modified ASTM 5589 which is a standard accelerated test method for determining resistance of various coatings (including paints) to algal defacement. To accommodate for high-throughput screening, this method was scaled down from petri dishes to 6-well plates. Bold Modified Basal Freshwater Nutrient Solution was used as growth medium. A single coated filter paper coupon was placed with a pair of sterile forceps at the center of the agar plug (on top) with the painted surface facing upwards. Algal inoculums were prepared by mixing equal concentrations (1×10^6 cfu/ml) and equal volumes of exponentially growing algae cultures.
(§3) Each well that contains a tested coupon was inoculated with 1750 μl of algal suspensions (1×10^6 cfu/ml) making sure that the whole surface (paint film as well as the agar surrounding it) was evenly covered. The plates were incubated at room temp (21° C.-25° C.) with cyclic exposure to light and dark phases, for a period of three weeks.
(§4) At the end of the three week incubation period, the samples were scored for percent inhibition regarding visible algal growth compared to the blank sample (0% inhibition).
(§5) The SI is calculated based on F. C. Kull et.
(§6) SI value of <1 in the formula indicates a synergism of the blended biocides exists.
(§7) The minimal targeted inhibition was set at 75%, meaning a coupon with at least 75% algal growth inhibition was considered as a pass.

[1] = tested on: Stichococcus bacillaris SAG 379-1a / CCAP 379/1a; assay: as above; type: cell-based; details: for inhibition at 5000 ppm: Stichococcus bacillaris, 504 h; for Total conc: total biocide concentration in paint at which the % inhibition is reported, pass level ≥75% inhibition, single actives: maximum concentration tested, no pass
Protocol: as §1, §2, §3, §4, §5, §6, §7

## O=c1[nH]c2c(c(=O)n1C1CCCCC1)CCC2 [Lenacil, 3-cyclohexyl-1,5,6,7-tetrahydrocyclopentapyrimidine-2,4(3H)-dione]
Chlorella sp. ATCC 7516
  inhibition at 5000 ppm: 30%
Chlorella sp. ATCC 7516; 3 weeks
  Total conc: 5000 ppm
[1]
  inhibition at 5000 ppm: 70%
[1]; Stichococcus, 3 weeks
  Total conc: 5000 ppm

## CCNc1nc(NC(C)(C)C)nc(SC)n1 [Terbutryn, N^2-tert-butyl-N^4-ethyl-6-methylthio-1,3,5-triazine-2,4-diamine]
Chlorella sp. ATCC 7516; total conc 5000 ppm in paint, visible algal growth vs blank, 3 weeks, read-out: % inhibition
  inhibition at 5000 ppm: 65%
Chlorella sp. ATCC 7516; 3 weeks
  Total conc: 5000 ppm
[1]; Stichococcus, total conc 5000 ppm in paint, visible algal growth vs blank, 3 weeks, read-out: % inhibition
  inhibition at 5000 ppm: 35%
[1]; Stichococcus, 3 weeks
  Total conc: 5000 ppm
